From patent publication US11554154B2, “Polygala extract for the treatment of major depressive disorder” (priority 2020, dated 2023)

Test system: tetrabenazine-induced hypothermia
Experiment: In vivo tetrabenazine-induced hypothermia test
Settings: oral gavage 60 minutes before TBZ i.p.; ICR male mice
Protocol: FIG. 1 depicts in vivo tetrabenazine-induced hypothermia test. Imipramine (positive control), PDC-1421, 1st Fraction 10-19, 1st Fraction 33, 2nd Fraction-1 (the major components are polygalatenosides A/B/C), 2nd Fraction-3, TMCA, Polygalaxanthone III, Onjisaponin B, Sibiricose A5, 7-O-Methylmangiferin and Sibiricaxanthone B are administered as test substances and the temperature recovery (%) is documented as shown in figure. The around 70% of PDC-1421 in Example 1 are composed of sucroester (34%), saponin (18%) and xanthone (17%). Some active compounds of powder product in Example 1, polygalatenosides A/B/C (2nd fraction 1), ploygalaxanthone III, sibiricoses A5, and 7-O-methylmangiferin are also discovered through in vivo tetrabenazine-induced hypothermia test (one of rodent models for evaluating antidepressant-like activity in mice). Imipramine (positive control), PDC-1421, 1st Fraction 10-19, 1st Fraction 33, 2nd Fraction-1 (the major components are polygalatenosides A/B/C), 2nd Fraction-3, TMCA, Polygalaxanthone III, Onjisaponin B, Sibiricose A5, 7-O-Methylmangiferin and Sibiricaxanthone B were dissolved in water for injection (WFI) and administered by oral gavage. The dosing volume was 10 mL/kg. Test substances and vehicle (WFI) were administered by oral gavage to groups of 8 ICR male mice weighing 23±3 g 60 minutes before intraperitoneal injection of tetrabenazine (TBZ, 85 ma/kg). Body temperature was recorded before (0 min), and 60, 90 and 120 min after TBZ challenge.

SMILES: COc1cc2c(=O)c3c(O)c([C@@H]4O[C@H](CO)[C@@H](O)[C@H](O)[C@H]4O)c(O)cc3oc2cc1O [7-O-methylmangiferin]
- activity in tetrabenazine-induced hypothermia test (temperature recovery): active

SMILES: COc1cc2c(=O)c3c(O)c([C@@H]4O[C@H](CO[C@@H]5OC[C@](O)(CO)[C@H]5O)[C@@H](O)[C@H](O)[C@H]4O)c(O)cc3oc2cc1O [ploygalaxanthone III]
- activity in tetrabenazine-induced hypothermia test (temperature recovery): active

SMILES: COc1cc(/C=C/C(=O)O[C@H]2[C@H](O)[C@@H](CO)O[C@@]2(CO)O[C@H]2O[C@H](CO)[C@@H](O)[C@H](O)[C@H]2O)ccc1O [sibiricoses A5]
- activity in tetrabenazine-induced hypothermia test (temperature recovery): active
